Measured values published in patent US20250236608A1, “EGFR INHIBITORS” (Blueprint Medicines Corporation, priority 2022, published 2025).

Key:
EGFR L858R = EGFR L858R (Homo sapiens (Human), UniProt P00533, L858R); experiment: Biochemical EGFR inhibition assay, EGFR L858R; settings: Caliper mobility shift; 1.0 mM ATP or ATP Km; read-out: Enz EGFR_L858R IC50
Method: (§1) Reactions proceeded until between 10% to 20% total peptides were phosphorylated at room temperature (25° C.) and were terminated with 35 mM 2,2′,2″,2″-(ethane-1,2-diyldinitrilo)tetraacetic acid (EDTA). Product was detected using the Caliper mobility shift detection method where the phosphorylated peptide (product) and substrate were electrophoretically separated and measured. Percent activity was plotted against log concentration of compound and points to generate an apparent IC50.

EGFR (d746-750) = EGFR (d746-750) (Homo sapiens (Human), UniProt P00533, DEL746-750); experiment: Biochemical EGFR inhibition assay, EGFR (d746-750); settings: Caliper mobility shift; 1.0 mM ATP or ATP Km; read-out: Enz EGFR_Exon19-del746-750 IC50
EGFR (d746-750), sequence (P00533 other isoform, or with tags, fused parts or gaps del 1-694/del 746-750 limits assumed): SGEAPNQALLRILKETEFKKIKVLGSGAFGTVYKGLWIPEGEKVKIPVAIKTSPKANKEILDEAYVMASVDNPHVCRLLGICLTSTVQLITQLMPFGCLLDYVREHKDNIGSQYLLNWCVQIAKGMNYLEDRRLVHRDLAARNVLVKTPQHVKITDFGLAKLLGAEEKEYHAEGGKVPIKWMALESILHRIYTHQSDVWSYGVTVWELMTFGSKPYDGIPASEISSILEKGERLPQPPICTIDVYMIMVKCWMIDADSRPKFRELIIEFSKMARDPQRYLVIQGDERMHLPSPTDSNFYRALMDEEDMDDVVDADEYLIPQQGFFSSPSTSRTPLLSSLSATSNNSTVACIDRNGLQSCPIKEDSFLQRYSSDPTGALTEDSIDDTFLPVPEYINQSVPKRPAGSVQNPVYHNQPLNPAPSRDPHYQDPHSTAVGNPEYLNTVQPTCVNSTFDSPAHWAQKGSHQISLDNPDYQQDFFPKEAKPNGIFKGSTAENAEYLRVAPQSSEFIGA
Method: as §1

[1] = biological target: pEGFR (Tyr1068) in PC-9 cells (Ex19Del) (Homo sapiens (Human), UniProt P00533, DEL746-750); experiment: PC-9 pEGFR AlphaLISA assay; assay type: cell-based; settings: 4 hours incubation, p-EGFR (Tyr1068) AlphaLISA, read-out: Ext pEGFR_PC-9 Ex19Del IC50
pEGFR (Tyr1068) in PC-9 cells (Ex19Del), sequence (P00533 other isoform, or with tags, fused parts or gaps del 746-750): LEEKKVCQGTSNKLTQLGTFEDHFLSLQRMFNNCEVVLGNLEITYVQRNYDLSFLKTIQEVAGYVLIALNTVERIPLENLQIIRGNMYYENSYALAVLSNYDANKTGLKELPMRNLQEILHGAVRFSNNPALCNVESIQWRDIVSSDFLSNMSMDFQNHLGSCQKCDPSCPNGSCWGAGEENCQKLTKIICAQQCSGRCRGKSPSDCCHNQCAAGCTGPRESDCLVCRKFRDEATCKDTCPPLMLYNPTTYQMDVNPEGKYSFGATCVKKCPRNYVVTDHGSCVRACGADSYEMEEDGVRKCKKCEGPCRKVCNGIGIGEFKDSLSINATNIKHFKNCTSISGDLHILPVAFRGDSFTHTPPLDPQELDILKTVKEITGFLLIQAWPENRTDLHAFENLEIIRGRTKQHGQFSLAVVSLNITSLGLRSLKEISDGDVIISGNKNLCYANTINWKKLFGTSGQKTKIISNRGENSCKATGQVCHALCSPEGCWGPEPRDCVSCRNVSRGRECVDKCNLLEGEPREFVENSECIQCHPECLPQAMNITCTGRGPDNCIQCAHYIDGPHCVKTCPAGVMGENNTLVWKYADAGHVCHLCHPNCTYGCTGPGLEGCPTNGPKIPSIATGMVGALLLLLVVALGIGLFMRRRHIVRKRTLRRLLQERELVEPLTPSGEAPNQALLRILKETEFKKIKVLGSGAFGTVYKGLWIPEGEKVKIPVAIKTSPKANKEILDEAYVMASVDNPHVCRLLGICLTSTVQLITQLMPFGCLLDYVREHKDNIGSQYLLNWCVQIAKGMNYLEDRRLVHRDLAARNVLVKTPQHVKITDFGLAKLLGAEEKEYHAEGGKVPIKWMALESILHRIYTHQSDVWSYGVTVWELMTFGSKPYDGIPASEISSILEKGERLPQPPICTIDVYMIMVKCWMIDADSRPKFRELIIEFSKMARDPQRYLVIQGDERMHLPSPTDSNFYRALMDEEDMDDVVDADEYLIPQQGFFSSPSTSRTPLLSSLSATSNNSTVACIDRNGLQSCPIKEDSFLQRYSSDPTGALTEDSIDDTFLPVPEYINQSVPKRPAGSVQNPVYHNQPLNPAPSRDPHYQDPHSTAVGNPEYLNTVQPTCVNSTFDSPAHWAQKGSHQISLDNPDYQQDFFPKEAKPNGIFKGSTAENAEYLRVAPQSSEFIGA
Method: PC-9/A431 pEGFR AlphaLISA Assays
Inhibitory effects of compounds were evaluated in cellular assays that measure level of intracellular phosphorylation of EGFR in PC-9 (ECACC, #90071810, Milipore/Sigma) and A431 cell lines (ATCC, CRL-1555) using AlphaLISA sureFire ultra p-EGFR (Tyr1068) assay kit (PerkinElmer, ALSU-PEGFR-A50K). PC-9 cells were seeded at 3.125×10^5 cells/ml in 40 μL phenol-free DMEM supplemented with 10% FBS per well of a 384 well plate (Corning, 3764), while A431 were seeded at 3.125×10^5 cells/ml in 40 μL in phenol-free DMEM with 0.5% FBS. Cells were allowed to adhere overnight at 37° C./5% CO2. On the next day, compounds were transferred at 4-fold, 10-point serial dilution from compound source plate to cell plates using liquid handler Echo550 and were incubated at 37° C./5% CO2 for 4 hours. A431 cells were stimulated prior harvesting for 10 min with EGF at final concentration of 30 ng/ml in the incubator. Medium was removed from the plates and cells were lysed with 10 μL of 1× AlphaLISA lysis buffer (supplemented with 1× protease/phosphatase inhibitor cocktail) followed by shaking at 600 rpm for 30 minutes at room temperature. Lysates were transferred to Optiplate (Apricot designs) and 5 μl of 1× acceptor bead mix (prepared just before use) was added to each well followed by incubation at room temperature for 1.5-2 h in dark. Then 5 μL of freshly-made donor bead mix is added to each well under subdued lighting or green filters, was mixed well on the shaker and the plate was sealed and left for an overnight incubation at room temperature in dark. On the next day, the plate was read the Envision using standard AlphaLisa settings. Percent of pEGFR inhibition was plotted against log concentration of compounds to generate IC50 values.

EGFR L858R, sequence (P00533 25-1210 L858R): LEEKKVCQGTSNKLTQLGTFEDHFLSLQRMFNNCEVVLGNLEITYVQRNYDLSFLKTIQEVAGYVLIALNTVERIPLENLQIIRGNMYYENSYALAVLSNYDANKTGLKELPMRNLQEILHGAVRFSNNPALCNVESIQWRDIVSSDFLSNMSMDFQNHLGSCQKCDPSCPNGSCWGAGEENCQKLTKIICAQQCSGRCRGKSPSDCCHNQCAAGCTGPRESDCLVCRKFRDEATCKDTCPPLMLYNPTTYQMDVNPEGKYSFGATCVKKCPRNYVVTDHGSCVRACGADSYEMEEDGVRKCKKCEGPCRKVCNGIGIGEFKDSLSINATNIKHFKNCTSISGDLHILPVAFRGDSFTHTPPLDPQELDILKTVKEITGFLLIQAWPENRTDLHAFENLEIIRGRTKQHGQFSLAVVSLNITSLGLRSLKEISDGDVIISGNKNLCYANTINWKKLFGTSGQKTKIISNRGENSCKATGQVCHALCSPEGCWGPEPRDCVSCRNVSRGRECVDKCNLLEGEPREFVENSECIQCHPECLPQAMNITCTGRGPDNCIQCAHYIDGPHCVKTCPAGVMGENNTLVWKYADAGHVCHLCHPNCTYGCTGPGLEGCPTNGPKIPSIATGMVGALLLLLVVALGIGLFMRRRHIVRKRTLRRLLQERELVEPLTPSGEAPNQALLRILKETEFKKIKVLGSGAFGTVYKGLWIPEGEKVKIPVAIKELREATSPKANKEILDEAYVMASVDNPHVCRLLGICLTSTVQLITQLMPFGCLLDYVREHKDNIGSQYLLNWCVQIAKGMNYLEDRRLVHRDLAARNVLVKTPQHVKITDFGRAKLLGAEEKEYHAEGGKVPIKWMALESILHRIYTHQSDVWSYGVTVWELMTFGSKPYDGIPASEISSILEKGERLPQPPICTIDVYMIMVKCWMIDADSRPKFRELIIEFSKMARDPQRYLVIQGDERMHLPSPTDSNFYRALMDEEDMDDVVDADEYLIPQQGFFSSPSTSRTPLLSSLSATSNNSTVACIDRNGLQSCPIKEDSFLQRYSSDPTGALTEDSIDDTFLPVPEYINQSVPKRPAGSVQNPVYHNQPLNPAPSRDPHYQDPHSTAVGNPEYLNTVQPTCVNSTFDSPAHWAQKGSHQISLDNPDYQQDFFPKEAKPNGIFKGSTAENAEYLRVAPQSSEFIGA

IC50 (EGFR L858R) [nM] | IC50 (EGFR (d746-750)) [nM] | IC50 [1] [nM] | SMILES
1.6 | 0.9 | 1.6 | COc1cc2c(-c3cn(C)nc3-c3ccccc3)ncnc2cc1N1CC2(CN(C(C)=O)C2)C1 [Example 447, 1-(6-(6-methoxy-4-(1-methyl-3-phenyl-1H-pyrazol-4-yl)quinazolin-7-yl)-2,6-diazaspiro[3.3]heptan-2-yl)ethan-1-one]
6.9 | 2.7 | 9.3 | COc1cc2ncnc(-c3cn(C)nc3-c3ccccc3)c2nc1NC(=O)[C@@]1(C(F)(F)F)CCN(C)C1 (single isomer, unassigned) [Example 394, (R)—N-(7-methoxy-4-(1-methyl-3-phenyl-1H-pyrazol-4-yl)pyrido[3,2-d]pyrimidin-6-yl)-1-methyl-3-(trifluoromethyl) pyrrolidine-3-carboxamide or (S)—N-(7-methoxy-4-(1-methyl-3-phenyl-1H-pyrazol-4-yl)pyrido[3,2-d]pyrimidin-6-yl)-1-methyl-3-(trifluoromethyl) pyrrolidine-3-carboxamide]
1.3 | 0.8 | 1 | COc1cc2ncnc(-c3cn(CC(F)F)nc3-c3ccccc3)c2cc1NC(=O)c1cnsc1 [Example 271, N-(4-(1-(2,2-difluoroethyl)-3-phenyl-1H-pyrazol-4-yl)-7-methoxyquinazolin-6-yl)isothiazole-4-carboxamide]
1.9 | 1.1 | 1.2 | COc1cc2ncnc(-c3cn(C)nc3-c3ccccc3F)c2nc1NC(=O)C1CC1 [Example 356, N-(4-(3-(2-fluorophenyl)-1-methyl-1H-pyrazol-4-yl)-7-methoxypyrido[3,2-d]pyrimidin-6-yl)cyclopropanecarboxamide]
1.3 | 1.8 | 1.9 | COc1cc2ncnc(-c3cn(C)nc3-c3ccc(F)cc3F)c2nc1NC(=O)C12CC(C1)C2 [Example 421, N-(4-(3-(2,4-difluorophenyl)-1-methyl-1H-pyrazol-4-yl)-7-methoxypyrido[3,2-d]pyrimidin-6-yl)bicyclo[1.1.1]pentane-1-carboxamide]
3.8 | 2 | 2.6 | COc1cc2ncnc(-c3cn(C)nc3-c3ccccc3)c2cc1NC(=O)c1ccc(F)cn1 [Example 324, 5-fluoro-N-(7-methoxy-4-(1-methyl-3-phenyl-1H-pyrazol-4-yl)quinazolin-6-yl)picolinamide]
121 | 76.3 | 1210 | COc1cc2ncnc(-c3cnn(C(F)(F)F)c3-c3ccccc3)c2cc1NC(=O)C12CC(C1)C2 [Example 485, N-(7-methoxy-4-(5-phenyl-1-(trifluoromethyl)-1H-pyrazol-4-yl)quinazolin-6-yl)bicyclo[1.1.1]pentane-1-carboxamide]
2.4 | 1.7 | 2.5 | COc1cc2ncnc(-c3cn(C)nc3-c3ccccc3)c2cc1NC(=O)C[C@H]1CCCO1 [Example 280, (R)—N-(7-methoxy-4-(1-methyl-3-phenyl-1H-pyrazol-4-yl)quinazolin-6-yl)-2-(tetrahydrofuran-2-yl) acetamide]
1.8 | 1.1 | 1 | COc1cc2ncnc(-c3cn(CC(F)F)nc3-c3ccccc3)c2nc1NC(=O)c1ccc(C2CC2)nc1 [Example 358, 6-cyclopropyl-N-(4-(1-(2,2-difluoroethyl)-3-phenyl-1H-pyrazol-4-yl)-7-methoxypyrido[3,2-d]pyrimidin-6-yl)nicotinamide]
1.6 | 0.7 | 1.6 | COc1cc2ncnc(-c3cn(C)nc3-c3ccccc3)c2nc1NC(=O)c1ccccc1F [Example 359, 2-fluoro-N-(7-methoxy-4-(1-methyl-3-phenyl-1H-pyrazol-4-yl)pyrido[3,2-d]pyrimidin-6-yl)benzamide]
1.2 | 2.3 | 15.3 | CCn1ncc(-c2ncnc3cc(-c4cnn(C)c4)ccc23)c1-c1ccccc1 [Example 495]
12.7 | 2.9 | 7.2 | CN(C)C12CC(C(=O)Nc3nc4c(-c5cn(C)nc5-c5ccc(F)cc5)ncnc4cc3OC3CC3)(C1)C2 [Example 461, N-{7-cyclopropoxy-4-[3-(4-fluorophenyl)-1-methyl-1H-pyrazol-4-yl]pyrido[3,2-d]pyrimidin-6-yl}-3-(dimethylamino) bicyclo[1.1.1]pentane-1-carboxamide]

Second part, the compound before the results:

SMILES | IC50 (EGFR L858R) [nM] | IC50 (EGFR (d746-750)) [nM] | IC50 [1] [nM]
COc1cc2ncnc(-c3cn(C)nc3-c3ccccc3)c2cc1OC(=O)N1CCOCC12CC2 [Example 65, 7-methoxy-4-(1-methyl-3-phenyl-1H-pyrazol-4-yl)quinazolin-6-yl 7-oxa-4-azaspiro[2.5]octane-4-carboxylate] | 6.1 | 2.5 | 2.5
COc1cc2ncnc(-c3cn(C)nc3-c3ccccc3)c2cc1OC(=O)N1[C@@H](C)CNC[C@@H]1C [Example 88, 7-methoxy-4-(1-methyl-3-phenyl-1H-pyrazol-4-yl)quinazolin-6-yl (2S,6S)-2,6-dimethylpiperazine-1-carboxylate] | 3.2 | 1.9 | 7.5
COc1cc2ncnc(-c3cn(C)nc3-c3ccccc3)c2cc1NC(=O)c1cc2n(n1)CCCC2 [Example 225, N-(7-methoxy-4-(1-methyl-3-phenyl-1H-pyrazol-4-yl)quinazolin-6-yl)-4,5,6,7-tetrahydropyrazolo[1,5-a]pyridine-2-carboxamide] | 14 | 9 | 5.1
COc1cc2ncnc(-c3cn(C)nc3-c3ccccc3)c2nc1OC(C)c1nnc(C)o1 (stereo not drawn) [Example 27, 2-(1-((7-methoxy-4-(1-methyl-3-phenyl-1H-pyrazol-4-yl)pyrido[3,2-d]pyrimidin-6-yl)oxy)ethyl)-5-methyl-1,3,4-oxadiazole] | 5.5 | 3 | 8.1
COc1cc2ncnc(-c3cn(C)nc3-c3ccccc3)c2cc1NC(=O)[C@H]1CCN1C (single isomer, unassigned) [Example 253, (R)—N-(7-methoxy-4-(1-methyl-3-phenyl-1H-pyrazol-4-yl)quinazolin-6-yl)-1-methylazetidine-2-carboxamide or (S)—N-(7-methoxy-4-(1-methyl-3-phenyl-1H-pyrazol-4-yl)quinazolin-6-yl)-1-methylazetidine-2-carboxamide] | 2.4 | 1.9 | 3.9
COCC1(C(=O)Nc2cc3c(-c4cn(C)nc4-c4ccccc4)ncnc3cc2OC)CCC1 [Example 214, N-(7-methoxy-4-(1-methyl-3-phenyl-1H-pyrazol-4-yl)quinazolin-6-yl)-1-(methoxymethyl)cyclobutane-1-carboxamide] | 1.6 | 0.9 | 1.2
COc1cc2ncnc(-c3cn(C)nc3-c3ccccc3)c2cc1O[C@@H]1CN(C)C[C@@H]1F [Example 5, 6-(((3R,4S)-4-fluoro-1-methylpyrrolidin-3-yl)oxy)-7-methoxy-4-(1-methyl-3-phenyl-1H-pyrazol-4-yl)quinazoline] | 3 | 2 | 4.6
CCOc1cc2ncnc(-c3cn(C(C)C)nc3-c3ccccc3)c2cc1CO [Example 125, (7-ethoxy-4-(1-isopropyl-3-phenyl-1H-pyrazol-4-yl)quinazolin-6-yl)methanol] | 1.4 | 0.9 | 2.1
COc1cc2ncnc(-c3cn(C)nc3-c3ccccc3F)c2cc1NC(=O)[C@@]12COC[C@@H]1C2 (single isomer, unassigned) [Example 240, (1R,5R)—N-(4-(3-(2-fluorophenyl)-1-methyl-1H-pyrazol-4-yl)-7-methoxyquinazolin-6-yl)-3-oxabicyclo[3.1.0]hexane-1-carboxamide or (1S,5S)—N-(4-(3-(2-fluorophenyl)-1-methyl-1H-pyrazol-4-yl)-7-methoxyquinazolin-6-yl)-3-oxabicyclo[3.1.0]hexane-1-carboxamide] | 1.8 | 0.8 | 1.4
